{
  "source": "patent US20020198172A1",
  "about": "“Method of treating motor neuron diseases and demyelinating diseases with citicoline” (priority 1997, published 2002)",
  "key": {"[1]": {"tested_on": "patient with chronic progressive multiple sclerosis", "assay_type": "in vivo", "from_the_text": "(§1) Currently, they are diagnosed with chronic-progressive multiple sclerosis. They are afflicted with visual impairments, chronic fatigue, difficulty with speech articulation, tremors in the right and left hands, decreased fine motor movement in the right greater than left hands and decreased motor strength in their lower extremities. They are without weight bearing and is confined to a wheelchair. When asked what their major barriers are as far as functional abilities on a day to day basis, they place fatigue at the top of their impairment list followed by speech difficulties and decreased fine motor movement of their hands. They experienced marked spasticity of their lower extremities with the progression of their neurological condition over the course of several years and eventually resorted to a baclofen pump which was implanted in 1997. […] They receive 85 micrograms of baclofen per day."}, "[2]": {"tested_on": "experimental autoimmune encephalomyelitis", "assay": "EAE prevention therapy, daily functional score (Example 2)", "assay_type": "in vivo, female Lewis rats", "settings": "score 0 to 4", "description": "Thirty-two female Lewis rats are divided into four groups of eight each and on day one administered saline, citicoline (500 or 1000 mg/kg, i.p.), or dexamethasone (0.0375 mg/kg), respectively. Dexamethasone acts as a positive control through its ability to suppress immune function. […] Therapy is continued daily. […] Numerical values are averages of the functional scores in each treatment group from Days 14-21 of the study."}, "[3]": {"tested_on": "patients with chronic multiple sclerosis", "assay": "Human study in chronic multiple sclerosis, EDSS and SNRS (Example 6)", "assay_type": "in vivo", "settings": "250, 500, or 1,000 mg each patient each day orally or intravenously for six months; eight patients", "description": "A study of two sets of four patients each with chronic multiple sclerosis is undertaken. Each patient is first examined for normal hepatic, renal, and bone marrow functioning to establish baseline values. Each of the patients in each group is then treated either with citicoline dissolved in sterile preservative-free isotonic saline 10% or oral tablet or capsule. The citicoline is administered orally or intravenously at a dosage of 250, 500, or 1,000 mg each patient each day for six months. Patients are examined on a daily basis. During the treatment period, daily blood counts and twice weekly blood chemistries are performed on each patient. The neurologic function of each of these patients is measured using the expanded Krutzke disability status scale (EDSS), and the Scripps neurologic rating scale (SNRS)."}, "[4]": {"tested_on": "patients with bulbar palsy caused by ALS", "assay": "Human study in bulbar palsy caused by ALS (Example 7)", "assay_type": "in vivo", "settings": "500-1000 mg citicoline daily", "description": "Six patients with bulbar palsy caused by ALS are treated with 500-1000 mg each citicoline by injection (monosodium salt dissolved in 10 ml sterile isotonic solution of sodium chloride) or by a solid tablet or soft gel capsule orally and administered daily."}, "[5]": {"tested_on": "patients suffering from ALS", "assay": "Double-blind study against placebo in ALS, survival (Example 8)", "assay_type": "in vivo, human", "description": "A double-blind study against placebo is performed as follows: 77 patients suffering from ALS are treated with 500 mg each citicoline by injection (monosodium salt dissolved in 10 ml sterile isotonic solution of sodium chloride) or be a solid tablet or soft gel capsule orally and administered daily, for a period of 12 to 18 months, and 78 patients receive a placebo. The results obtained are analyzed in terms of survival in the study, it being understood that “study drop-outs” (departures from the study) include individuals who actually die, and also individuals whose clinical state necessitates a tracheotomy or transfer to assisted ventilation."}, "[6]": {"tested_on": "patient with chronic progressive multiple sclerosis", "assay": "Case, chronic progressive multiple sclerosis, citicoline response (Example 13)", "assay_type": "in vivo, human", "from_the_text": "as §1"}, "patients": {"tested_on": "patients", "assay": "Observed tolerance of citicoline in patients", "assay_type": "in vivo, human", "settings": "doses about 250 mg to about 2000 mg for several weeks to several years", "from_the_text": "Dosages may be varied over time depending on the severity of symptoms, individual patient tolerance, route of administration and response to treatment. Treatment may be continued indefinitely if needed and if tolerated well."}, "[7]": {"settings": "patient history since around 1986"}, "[8]": {"settings": "dexamethasone 0.0375 mg/kg daily from day one"}, "[9]": {"settings": "citicoline 500 mg/kg i.p. daily from day one"}, "[10]": {"settings": "citicoline 1000 mg/kg i.p. daily from day one"}},
  "note": "Like-named read-outs stand apart in the source and are kept apart here.",
  "data": [
    {"compound": "Nc1nc(Cl)nc2c1ncn2[C@H]1C[C@H](O)[C@@H](CO)O1", "note": "[Cladribine]", "values": [
      {"measurement": "effect of earlier treatment on multiple sclerosis", "setting": "[1]; [7]", "value": "no effect"}
    ]},
    {"compound": "O=P1(N(CCCl)CCCl)NCCCO1", "note": "(stereo not drawn) [Cytoxan]", "values": [
      {"measurement": "course of earlier treatment, tolerability", "setting": "[1]; [7]", "value": "discontinued due to adverse events"}
    ]},
    {"compound": "C[C@@H]1C[C@H]2[C@@H]3CCC4=CC(=O)C=C[C@]4(C)[C@@]3(F)[C@@H](O)C[C@]2(C)[C@@]1(O)C(=O)CO", "note": "[Dexamethasone]", "values": [
      {"measurement": "Mean Functional Score Day 14", "setting": "[2]; [8]", "value": 0.14},
      {"measurement": "Mean Functional Score Day 15", "setting": "[2]; [8]", "value": 0.42},
      {"measurement": "Mean Functional Score Day 16", "setting": "[2]; [8]", "value": 0.0},
      {"measurement": "Mean Functional Score Day 17", "setting": "[2]; [8]", "value": 0.14},
      {"measurement": "Mean Functional Score Day 18", "setting": "[2]; [8]", "value": 0.28},
      {"measurement": "Mean Functional Score Day 19", "setting": "[2]; [8]", "value": 0.64},
      {"measurement": "Mean Functional Score Day 20", "setting": "[2]; [8]", "value": 0.57},
      {"measurement": "Mean Functional Score Day 21", "setting": "[2]; [8]", "value": 0.64}
    ]},
    {"compound": "Cn1cnc([N+](=O)[O-])c1Sc1ncnc2[nH]cnc12", "note": "[Imuran]", "values": [
      {"measurement": "effect of earlier treatment on multiple sclerosis", "setting": "[1]; in vivo", "value": "no effect"}
    ]},
    {"compound": "C[C@]12C=CC(=O)C=C1CC[C@@H]1[C@@H]2C(=O)C[C@@]2(C)[C@H]1CC[C@]2(O)C(=O)CO", "note": "[Prednisone]", "values": [
      {"measurement": "effect of earlier treatment on multiple sclerosis", "setting": "[1]; [7]", "value": "worked initially"}
    ]},
    {"compound": "NCC(CC(=O)O)c1ccc(Cl)cc1", "note": "(stereo not drawn) [baclofen]", "values": [
      {"measurement": "ability to bear weight on lower extremities", "setting": "[1]; baclofen pump, 85 micrograms per day", "value": "lessened their ability to bear weight on their lower extremities"},
      {"measurement": "spasticity in lower extremities", "setting": "[1]; baclofen pump, continuous infusion into spinal fluid, 85 micrograms per day", "value": "reduced the spasticity considerably"}
    ]},
    {"compound": "C[N+](C)(C)CCOP(=O)(O)OP(=O)([O-])OC[C@H]1O[C@@H](n2ccc(N)nc2=O)[C@H](O)[C@@H]1O", "note": "[citicoline, cytidine-5′-diphosphocholine]", "values": [
      {"measurement": "Mean Functional Score Day 14", "setting": "[2]; [9]", "value": 0.43},
      {"measurement": "Mean Functional Score Day 15", "setting": "[2]; [9]", "value": 0.41},
      {"measurement": "Mean Functional Score Day 16", "setting": "[2]; [9]", "value": 0.37},
      {"measurement": "Mean Functional Score Day 17", "setting": "[2]; [9]", "value": 0.38},
      {"measurement": "Mean Functional Score Day 18", "setting": "[2]; [9]", "value": 0.28},
      {"measurement": "Mean Functional Score Day 19", "setting": "[2]; [9]", "value": 0.59},
      {"measurement": "Mean Functional Score Day 20", "setting": "[2]; [9]", "value": 0.68},
      {"measurement": "Mean Functional Score Day 21", "setting": "[2]; [9]", "value": 0.87},
      {"measurement": "Mean Functional Score Day 14", "setting": "[2]; [10]", "value": 0.56},
      {"measurement": "Mean Functional Score Day 15", "setting": "[2]; [10]", "value": 0.78},
      {"measurement": "Mean Functional Score Day 16", "setting": "[2]; [10]", "value": 0.84},
      {"measurement": "Mean Functional Score Day 17", "setting": "[2]; [10]", "value": 0.69},
      {"measurement": "Mean Functional Score Day 18", "setting": "[2]; [10]", "value": 0.62},
      {"measurement": "Mean Functional Score Day 19", "setting": "[2]; [10]", "value": 0.91},
      {"measurement": "Mean Functional Score Day 20", "setting": "[2]; [10]", "value": 0.75},
      {"measurement": "Mean Functional Score Day 21", "setting": "[2]; [10]", "value": 0.84},
      {"measurement": "toxic side effects", "setting": "[3]", "value": "no evidence of any significant toxic side effects"},
      {"measurement": "side effects of this treatment", "setting": "[4]", "value": "insignificant"},
      {"measurement": "patients who die (study drop-outs)", "setting": "[5]; 500 mg citicoline daily for 12 to 18 months, 77 patients, placebo 50%", "value": 20, "unit": "%"},
      {"measurement": "patients who die (study drop-outs)", "setting": "[5]; subjects with early bulbar involvement or the bulbar form of ALS, 500 mg citicoline daily, placebo 65%", "value": 30, "unit": "%"},
      {"measurement": "adverse side effects", "setting": "[6]; 500 mg per day every morning, first two weeks", "value": "no adverse side effects"},
      {"measurement": "balance and fatigue on the first two days of increased dosage", "setting": "[6]; 1000 mg per day (500 mg a.m., 500 mg p.m.)", "value": "balance had been poor and that their fatigue had increased"},
      {"measurement": "fatigue after dosage increase", "setting": "[6]; 2000 mg per day (1000 mg a.m., 1000 mg p.m.)", "value": "worsening of fatigue in the morning hours for approximately two days"},
      {"measurement": "patient tolerance", "setting": "patients", "value": "tolerate citicoline well"}
    ]},
    {"compound": "ACTH: drug often used to treat ALS or MS (SYSMEHFRWGKPVGKKRRPVKVYPNGAEDESAEAFPLEF; Corticotropin; UniProt P01189 138-176, looked up)", "values": [
      {"measurement": "effect of earlier treatment on multiple sclerosis", "setting": "[1]; [7]", "value": "worked initially"}
    ]}
  ]
}
